The values below come from patent US20090247559A1 (Exelixis, Inc., priority 2007, published 2009).

One assay deals with CK2 (Homo sapiens, UniProt P68400). The assay can be described thus: CK2 inhibition, biochemical chemiluminescence holoenzyme assay (Kinase Glo, IC50 determination). Particulars: Table 1 activity class; symbol given only if active; read-out: CK2 IC50 (Activity C). The procedure: Characterization of CK2 Inhibition in a Biochemical Chemiluminesence Assay (IC50 Determination):
The IC50 evaluation of compounds against CK2 was performed in a Chemiluminesence Holoenzyme assay utilizing a Greiner 384-well white medium binding white plate format. […] The assay procedure involves the compound dilution scheme followed by addition of 10 μL of the substrate twice, followed by 10 μL twice of the respective enzyme or buffer to the designated well plates and subsequent pre-incubation of the compounds. Following an incubation period of 150 minutes at ambient temperature (24-27° C.), 10 μL of Kinase Glo (Promega) was added. The luminescence was measured following a Luminescence Protocol on a Victor plate reader.

Assay [1] has as its target PIM (PIM-1, PIM-2, and/or PIM-3). Briefly: PIM-1, PIM-2 and PIM-3 inhibition, biochemical chemiluminescence assays (Kinase Glo, IC50 determination). As to conditions: Table 1 activity class; PIM refers to PIM-1, PIM-2, and/or PIM-3; read-out: PIM IC50 (Activity B). On the procedure:
The IC50 evaluation of compounds against the PIM-1 oncogene was performed in a Chemiluminesence assay utilizing a Greiner 384-well white medium binding white plate format. […] Following an incubation period of 120 minutes at ambient temperature (24-27° C.), 10 μL of Kinase Glo (Promega) was added. The luminescence was measured following a Luminescence Protocol on a Victor plate reader.
The IC50 evaluation of compounds against the PIM-2 oncogene was performed in a Chemiluminesence assay utilizing a Greiner 384-well white medium binding white plate format. […] The assay procedure involves compound dilution followed by addition of 3 nM PIM-2 to the designated well plates and subsequent pre-incubation of the compounds with the enzyme for 30 minutes at ambient temperature (24-27° C.). […] Following an incubation period of 120 minutes at ambient temperature (24-27° C.), 10 μL of Kinase Glo (Promega) was added. The luminescence was measured following a Luminescence Protocol on a Victor plate reader.
The IC50 evaluation of compounds against the PIM-3 Oncogene was performed in a Chemiluminesence assay utilizing a Greiner 384-well white medium binding white plate format. […] Following an incubation period of 120 minutes at ambient temperature (24-27° C.), 10 μL of Kinase Glo (Promega) was added. The luminescence was measured following a Luminescence Protocol on a Victor plate reader.
(In general: Kinase-Glo measures the ATP left after a reaction by luminescence.)

Chain of CK2 (P68400 whole entry): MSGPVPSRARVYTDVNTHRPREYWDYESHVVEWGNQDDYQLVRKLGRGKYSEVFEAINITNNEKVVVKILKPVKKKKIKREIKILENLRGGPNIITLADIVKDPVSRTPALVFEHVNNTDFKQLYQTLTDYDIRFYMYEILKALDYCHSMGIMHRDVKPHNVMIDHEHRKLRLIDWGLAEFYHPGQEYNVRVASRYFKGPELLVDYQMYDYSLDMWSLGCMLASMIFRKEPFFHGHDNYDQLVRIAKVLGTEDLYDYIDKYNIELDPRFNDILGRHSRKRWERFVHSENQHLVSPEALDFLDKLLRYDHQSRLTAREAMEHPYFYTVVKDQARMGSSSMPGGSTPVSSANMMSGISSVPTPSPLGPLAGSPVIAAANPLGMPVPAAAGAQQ
Chain of CK2 (P67870 whole entry partner): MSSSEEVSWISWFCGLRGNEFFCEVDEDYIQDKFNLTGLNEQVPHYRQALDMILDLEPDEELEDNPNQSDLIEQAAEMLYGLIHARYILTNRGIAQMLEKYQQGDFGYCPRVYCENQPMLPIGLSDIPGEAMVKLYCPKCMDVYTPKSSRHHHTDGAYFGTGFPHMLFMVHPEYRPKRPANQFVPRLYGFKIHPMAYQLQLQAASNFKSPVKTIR

`O=c1[nH]c(CNCc2ccco2)nc2c1oc1ccc(Br)cc12` [Compound 258, 8-bromo-2-{[(furan-2-ylmethyl)amino]methyl}[1]benzofuro[3,2-d]pyrimidin-4(3H)-one]: the IC50 (on CK2; in assay [1]) was less than 10 µM throughout.
Turning to `O=c1[nH]c(N2CCCC2)nc2c1oc1ccc(Br)cc12` [Compound 196, 8-bromo-2-pyrrolidin-1-yl[1]benzofuro[3,2-d]pyrimidin-4(3H)-one], the IC50 (at CK2; in assay [1]) was less than 10 µM throughout.
Turning to `O=c1[nH]c(Nc2ccccc2)nc2c1oc1ccc(Br)cc12` [Compound 180, 8-bromo-2-(phenylamino)[1]benzofuro[3,2-d]pyrimidin-4(3H)-one], the IC50 (on CK2; in assay [1]) was less than 10 µM in each case.
Take `O=c1[nH]c(CC2CCNCC2)nc2c1oc1ccc(Br)cc12` [Compound 122, 8-bromo-2-(piperidin-4-ylmethyl)[1]benzofuro[3,2-d]pyrimidin-4(3H)-one]: the IC50 (on CK2; in assay [1]) was less than 10 µM throughout.
On to `CN1CCN(c2cccc(CNCc3nc4c(oc5ccc(Br)cc54)c(=O)[nH]3)c2)CC1` [Compound 14, 8-bromo-2-[({[3-(4-methylpiperazin-1-yl)phenyl]methyl}amino)-methyl][1]benzofuro[3,2-d]pyrimidin-4(3H)-one], for which the IC50 (at CK2; in assay [1]) was less than 10 µM in each case.
For `CN(C)CCCNc1nc2c(oc3ccc(Br)cc32)c(=O)[nH]1` [Compound 193, 8-bromo-2-{[3-(dimethylamino)propyl]amino}[1]benzofuro[3,2-d]pyrimidin-4(3H)-one], the IC50 (on CK2; in assay [1]) was less than 10 µM throughout.
With `O=C(Nc1ccc(Cl)c(-c2nc3c(oc4ccc(Br)cc43)c(=O)[nH]2)c1)c1ccccc1` [Compound 371, N-[3-(8-bromo-4-oxo-3,4-dihydro[1]benzofuro[3,2-d]pyrimidin-2-yl)-4-chlorophenyl]benzamide], the IC50 (on CK2; in assay [1]) was less than 10 µM in each case.
Consider `COc1cc(C(=O)Nc2ccc(Cl)c(-c3nc4c(oc5ccc(Br)cc54)c(=O)[nH]3)c2)ccn1` [Compound 337, N-[3-(8-bromo-4-oxo-3,4-dihydro[1]benzofuro[3,2-d]pyrimidin-2-yl)-4-chlorophenyl]-2-(methyloxy)pyridine-4-carboxamide], for which the IC50 (at CK2; in assay [1]) was less than 10 µM throughout.
On to `O=c1[nH]c(-c2ccc3c(NCC4CCNCC4)n[nH]c3c2)nc2c1oc1ccc(Br)cc12` [Compound 441, 8-bromo-2-{3-[(piperidin-4-ylmethyl)amino]-1H-indazol-6-yl}[1]benzofuro[3,2-d]pyrimidin-4(3H)-one], for which the IC50 (on CK2; in assay [1]) was less than 10 µM each time.
With `COc1ccc2oc3c(=O)[nH]c(-c4cc([N+](=O)[O-])ccc4Cl)nc3c2c1` [Compound 145, 2-(2-chloro-5-nitrophenyl)-8-(methyloxy)[1]benzofuro[3,2-d]pyrimidin-4(3H)-one], the IC50 (at CK2; in assay [1]) was less than 10 µM throughout.
As to `O=c1[nH]c(CN2CC[C@H](O)C2)nc2c1oc1ccc(NCCc3cccc(F)c3)cc12` [Compound 472, 8-{[2-(3-fluorophenyl)ethyl]amino}-2-{[(3S)-3-hydroxypyrrolidin-1-yl]methyl}[1]benzofuro[3,2-d]pyrimidin-4(3H)-one], the IC50 (at CK2; in assay [1]) was less than 10 µM in each case.
Take `CN1CCN(c2ccc(CNCc3nc4c(oc5ccc(Br)cc54)c(=O)[nH]3)cc2)CC1` [Compound 4, 8-bromo-2-[({[4-(4-methylpiperazin-1-yl)phenyl]methyl}amino)methyl][1]benzofuro[3,2-d]pyrimidin-4(3H)-one]: the IC50 (on CK2; in assay [1]) was less than 10 µM in each case.
With `O=C(O)Cc1nc2c(oc3ccc(Br)cc32)c(=O)[nH]1` [Compound 310, (8-bromo-4-oxo-3,4-dihydro[1]benzofuro[3,2-d]pyrimidin-2-yl)acetic acid], the concentration for half-maximal inhibition (IC50) (on CK2; in assay [1]) was less than 10 µM in each case.
